Activity, MIC80 and MIC data for one compound are collected here from ChEMBL document CHEMBL6087415, “Discovery of new fungal jumonji H3K27 demethylase inhibitors for the treatment of Cryptococcus neoformans and Candida auris infections” (Eur J Med Chem, 2025).

For assay [1], the system named is Cryptococcus neoformans. The assay can be described thus: Effect on sterol composition in Cryptococcus neoformans H99 assessed as other sterols content at 1 microg/ml measured after 24 hrs by GC-MS analysis (reference value: 41.47%). It counts as functional. To be noted: dose 1 µg/ml.
For assay [2], the system named is [Candida] auris. The assay can be described thus: Fungicidal activity against Candida auris 0029. The following applies: Candidozyma auris. It is filed as functional.
Assay [3] deals with [Candida] auris. The assay can be described thus: Antifungal activity against Candida auris ATCC 15448 assessed as reduction in fungal growth. It counts as functional. The following applies: Candidozyma auris.
In assay [4] the test system is [Candida] auris. The assay can be described thus: Effect on sterol composition in Candida auris 0029 assessed as ergosterol content at 1 microg/ml measured after 24 hrs by GC-MS analysis (reference value: 100 %). It counts as functional, Candidozyma auris. The following applies: dose 1 µg/ml.
In assay [5] the test system is Cryptococcus neoformans. The assay can be described thus: Effect on sterol composition in Cryptococcus neoformans H99 assessed as ergosterol content at 1 microg/ml measured after 24 hrs by GC-MS analysis (reference value: 58.53%). It is filed as functional. The following applies: dose 1 µg/ml.
For assay [6], the system named is Cryptococcus neoformans. The assay can be described thus: Antifungal activity against Cryptococcus neoformans H99 assessed as reduction in fungal growth incubated for 72 hrs in presence of 20 uM Fe2+. It counts as functional.
Assay [7] deals with Cryptococcus neoformans. The assay can be described thus: Antifungal activity against Cryptococcus neoformans H99 assessed as reduction in fungal growth incubated for 72 hrs in presence of 40 uM Fe2+. It counts as functional.
For assay [8], the system named is [Candida] auris. The assay can be described thus: Antifungal activity against Candida auris 0029 assessed as inhibition of cell growth at 16 microg/ml measured for 72 hrs. It counts as functional. To be noted: Candidozyma auris, dose 16.0 µg/ml.
In assay [9] the test system is Cryptococcus neoformans. The assay can be described thus: Antifungal activity against Cryptococcus neoformans H99 assessed as reduction in fungal growth incubated for 72 hrs in presence of 1 uM Fe2+. It is filed as functional.
The subject of assay [10] is Cryptococcus neoformans. The assay can be described thus: Effect on sterol composition in Cryptococcus neoformans H99 assessed as lanosterol content at 1 microg/ml measured after 24 hrs by GC-MS analysis. It counts as functional. The following applies: dose 1 µg/ml.
The test system of assay [11] is Cryptococcus neoformans. The assay can be described thus: Fungicidal activity against Cryptococcus neoformans H99. It counts as functional.
Assay [12] deals with [Candida] auris. The assay can be described thus: Antibiofilm activity against Candida auris 0029 assessed as inhibition of biofilm formation at 64 microg/ml incubated for 24 hrs by XTT reduction assay. It counts as functional. The following applies: Candidozyma auris, dose 64.0 µg/ml.
Assay [13] concerns Cryptococcus neoformans. The assay can be described thus: Antifungal activity against Cryptococcus neoformans H99 assessed as reduction in fungal growth incubated for 72 hrs in presence of 80 uM Fe2+. It counts as functional.
Assay [14] deals with Cryptococcus neoformans. The assay can be described thus: Antifungal activity against Cryptococcus neoformans H99 assessed as reduction in fungal growth incubated for 72 hrs in presence of 10 uM Fe2+. It is filed as functional.
For assay [15], the system named is Cryptococcus neoformans. The assay can be described thus: Antifungal activity against Cryptococcus neoformans H99 assessed as reduction in fungal growth incubated for 72 hrs in presence of 5 uM Fe2+. It is filed as functional.
Assay [16] deals with Cryptococcus neoformans. The assay can be described thus: Antibiofilm activity against Cryptococcus neoformans H99 assessed as inhibition of capsule formation at 4 microg/ml incubated for 48 hrs by laser confocal microscopic analysis. To be noted: dose 4.0 µg/ml. It counts as functional, organism-based.
In assay [17] the test system is Cryptococcus neoformans. The assay can be described thus: Effect on sterol composition in Cryptococcus neoformans H99 assessed as eburicol content at 1 microg/ml measured after 24 hrs by GC-MS analysis. It counts as functional. To be noted: dose 1 µg/ml.
Assay [18] deals with Cryptococcus neoformans. The assay can be described thus: Antifungal activity against Cryptococcus neoformans H99 assessed as reduction in fungal growth. It counts as functional.
Assay [19] deals with [Candida] auris. The assay can be described thus: Antifungal activity against Candida auris 0029 assessed as reduction in fungal growth. It counts as functional. The following applies: Candidozyma auris.
The subject of assay [20] is Cryptococcus neoformans. The assay can be described thus: Antifungal activity against Cryptococcus neoformans H99 assessed as inhibition of cell growth at 16 microg/ml measured for 72 hrs. It is filed as functional, organism-based. The following applies: dose 16.0 µg/ml.

SMILES strings stand for the structures. Converted amounts (≈) assume the structure as drawn. The source made the active and inactive calls. The calls are words filed in the database; no cut-off is given here.

`OC(Cn1cncn1)(Cn1cncn1)c1ccc(F)cc1F` [FLUCONAZOLE]: the Activity in [1] is 4.97%; in assay [4], 100%; in [5] it was 42.51%; in assay [10] it was 4.24%; in [17], 48.28%. In addition, the result in [2], in assay [8], in assay [11], in [12] and in assay [16] was inactive. For the same compound, the MIC80 in [3] was 16 µg/mL (≈ 52.2 µM); in [18] it was 2 µg/mL (≈ 6.53 µM); in assay [19] it was more than 64 µg/mL. For the same compound, the MIC is 4 µg/mL in [6]; 4 µg/mL in assay [7]; 2 µg/mL in assay [9]; 4 µg/mL in assay [13]; 4 µg/mL in [14]; 2 µg/mL in [15]. Further, the result in assay [20] was Active.

Usually MIC80 stands for the lowest concentration that inhibits either 80% of growth or 80% of the strains tested, depending on the study. Broadly, the MIC is the least concentration at which growth counts as inhibited.
